Reference: patent US20200261534A1, “NEW TREATMENTS OF MULTIPLE MYELOMA” (priority 2017, published 2020)
Where two headings read alike, the source gives them in different places. Starred links: 1 amine or outer side, 2 acyl side, 3 side chain; linkers in the order of their positions; H or OH if unused. Positions of bridges follow the written chain, without caps; N, C: chain ends. Non-standard residues stand in square brackets, D forms with d. Residues, ends and D or L forms follow the SMILES beside them. ξ: configuration not given here. Biphenyl(4,4'-CH2)2 = c1cc(-c2ccc(C[*:2])cc2)ccc1C[*:1]; ξαMeNle(6-ylidene) = CC(CCCC=[*:3])(N[*:1])C(=O)[*:2]; X1 = CC(CCCCCCC=[*:3])(N[*:1])C(=O)[*:2]; Octanediyl(1,8) = C(CCCC[*:2])CCC[*:1]; ξC = NC(CS)C(=O)O

Columns and labels:
Type in all cases: cell-based
[1] = test system: A549, epithelial (lung cancer); experiment: MTT viability assay, A549
Protocol: A549, epithelial (lung cancer), ATCC: CCL-185
(§1) Cell lines A549, MCF-7 and RAMOS were cultured in incubator under CO2 (6%) at 37° C. in DMEM high glucose (Dulbecco's Modified Eagle Solution, Gibco-BRL 31966-21) medium with 10% fetal bovine serum inactivated (FBS) (Gibco-BRL 10106-169). Cell lines HL-60 and MM.1S were cultured in incubator at 37° C. in RPMI-1640 (Sigma R8758) medium with 10% of fetal bovine serum inactivated (FBS) and 2 mM glutamine (Sigma G7513). Cell lines BJ were cultured in incubator under CO2 (6%) at 37° C. in Eagle's Minimum Essential Medium (Sigma, M-2279) with 10% fetal bovine serum inactivated (FBS) (Gibco-BRL 10106-169).
During the amplification step and the assays adherent cells were rinsed with DPBS (Dulbecco's Phosphate Buffered Saline, Sigma D1283) three times and afterward treated for 5 minutes with trypsin ([…]) (Gibco-BRL, 15400054) in solution of DPBS at 37° C., and, once detached, transferred in the culturing medium. No-adherent cells were centrifuged and transferred in the culturing medium. Cells were counted in a Neubauer chamber after labelling with Tripan-Blue. […]
(§2) Cells were incubated with the compounds at the indicated concentrations during 24-72 h in incubator under CO2 atmosphere at 37° C. Then, cell viability was measured by means of MTT (3-(4,5-dimethylthiazol-2-yl)-2,5-diphenyltetrazolium bromide) assay. Stock solution of MTT (475989 Calbiochem) was 5 mg/ml in PBS. 1×.10 μl/well of MTT solution were added and the plate was incubated for 3-4 hr. The medium was discarded and 100 μl of extracting buffer (PBS 1×, 15% SDS, 50% […] N,N-Dimethylformamide, pH 4.7) were added to each well. Plates were incubated for 16 h at room temperature under orbital shaking. Absorbance at 570 nm was finally measured. As negative control (experiment noise) 3 wells were treated with 20 μl/well of a solution of SDS 10% in H2O.
Data analysis was performed calculating the percentage of cell viability normalized vs. the values of negative control, which was considered equal to 100%. The dose/response curve was fitted through the sigmoidal equation dose-response (variable slope) and the IC50 values were calculated as follow: […]

[2] = test system: MM.1S, B Lymphoblast (multiple myeloma); experiment: MTT viability assay, MM.1S
Protocol: MM.1S, B Lymphoblast (multiple myeloma), ATCC: CRL-2974
as §1
During the amplification step and the assays adherent cells were rinsed with DPBS (Dulbecco's Phosphate Buffered Saline, Sigma D1283) three times and afterward treated for 5 minutes with trypsin ([…]) (Gibco-BRL, 15400054) in solution of DPBS at 37° C., and, once detached, transferred in the culturing medium. No-adherent cells were centrifuged and transferred in the culturing medium. Cells were counted in a Neubauer chamber after labelling with Tripan-Blue.
Cells were seeded at a density of 10000 cells/well in 100 μl of medium in 96 well plates. After 24 h, the compounds to be tested were added to calculate the dose/response curve at the starting concentration of 100 μM with serial dilutions (1:1). Controls are the untreated cells. Each experiment was performed in triplicate.
as §2
Data analysis was performed calculating the percentage of cell viability normalized vs. the values of negative control, which was considered equal to 100%. The dose/response curve was fitted through the sigmoidal equation dose-response (variable slope) and the IC50 values were calculated as follow:
Y=Bottom+(Top−Bottom)/(1+10^{[(LogIC50−X)*HillSlope]},
All cell lines were cultured in incubator at 37° C. in RPMI-1640 (Sigma R8758) medium with 10% of fetal bovine serum inactivated (FBS) and 2 mM glutamine (Sigma G7513). During the amplification step cells were centrifuged and transferred into the culturing medium. Cells were counted in a Neubauer chamber after labelling with Tripan-Blue.
as §2, with “peptidomimetic compound (S09)” for “compounds”
Cell lines A549 and MBA-MD231 were cultured in incubator under CO2 (6%) at 37° C. in DMEM high glucose (Dulbecco's Modified Eagle Solution, Gibco-BRL 31966-21) medium with 10% fetal bovine serum inactivated (FBS) (Gibco-BRL 10106-169). […]

[3] = test system: HL-60, promyeloblast (acute myelocytic leukemia, AML); experiment: MTT viability assay, HL-60
Protocol: HL-60, promyeloblast (acute myelocytic leukemia, AML), ECACC: 98070106 […] During the amplification step and the assays adherent cells were rinsed with DPBS (Dulbecco's Phosphate Buffered Saline, Sigma D1283) three times and afterward treated for 5 minutes with trypsin ([…]) (Gibco-BRL, 15400054) in solution of DPBS at 37° C., and, once detached, transferred in the culturing medium. No-adherent cells were centrifuged and transferred in the culturing medium. Cells were counted in a Neubauer chamber after labelling with Tripan-Blue. […] Cells were seeded at a density of 10000 cells/well in 100 μl of medium in 96 well plates. […] Controls are the untreated cells. Each experiment was performed in triplicate. Cells were incubated with the compounds at the indicated concentrations during 24-72 h in incubator under CO2 atmosphere at 37° C. […] Stock solution of MTT (475989 Calbiochem) was 5 mg/ml in PBS. 1×.10 μl/well of MTT solution were added and the plate was incubated for 3-4 hr. […] Plates were incubated for 16 h at room temperature under orbital shaking. Absorbance at 570 nm was finally measured. […] The dose/response curve was fitted through the sigmoidal equation dose-response (variable slope) and the IC50 values were calculated as follow: Y=Bottom+(Top−Bottom)/(1+10^{[(LogIC50−X)*HillSlope]},

[4] = A549, same protocol as Example 2, Table 6, read-out: Compound (IC50)
[5] = MM.1S, same protocol as Example 2, Table 6, read-out: Compound (IC50)
[6] = HL-60, same protocol as Example 2, Table 6, read-out: Compound (IC50)

IC50 [1] | IC50 [2] | IC50 [3] | SMILES | other results
 |  |  | CCc1ccc(/C=C2/SC(=S)NC2=O)cc1 [10058-F4, reference compound] | IC50 ([1]; A549, MTT, incubation 24-72 h, Table 3, read-out: IC50 values): > 100 µM; IC50 ([2]; MM.1S, MTT, incubation 24-72 h, Table 3, read-out: IC50 values): > 100 µM; IC50 ([3]; HL-60, MTT, incubation 24-72 h, Table 3, read-out: IC50 values): 54 ± 2 µM
> 100 µM | > 100 µM | > 100 µM | CC[C@H](C)[C@H](NC(=O)[C@@H](NC(=O)[C@@H](NC(=O)[C@H](CCCCN)NC(=O)[C@@H]1CCCN1C(=O)[C@H](C)N)C(C)C)C(C)C)C(=O)NC1(C)CCCCCCC=CCCCC(C)(C(=O)N[C@@H](CC(C)C)C(=O)N[C@@H](CO)C(=O)O)NC(=O)[C@H](Cc2ccc(O)cc2)NC(=O)[C@H](C)NC(=O)[C@H]([C@@H](C)O)NC(=O)[C@H](C)NC(=O)[C@H](CCCCN)NC(=O)[C@H](CCCCN)NC1=O (some centres unmarked) [IDP-S17, APKVVIXKKATAYXLS] (H-APKVVI[X1]KKATAY[ξαMeNle(6-ylidene)]LS-OH; staple 7-14; N-terminus and C-terminus assumed) | 
> 100 µM | > 100 µM | > 100 µM | CC[C@H](C)[C@@H]1NC(=O)[C@H](Cc2ccc(O)cc2)NC(=O)[C@H](C)NC(=O)[C@H]([C@@H](C)O)NC(=O)[C@H](C)NC(=O)[C@H](CCCCN)NC(=O)C(C)(NC(=O)[C@H](CC(C)C)NC(=O)[C@@H](NC(=O)[C@@H](NC(=O)[C@@H](NC(=O)[C@H](CCCCN)NC(=O)[C@@H]2CCCN2C(=O)[C@H](C)N)C(C)C)C(C)C)[C@@H](C)CC)CCCCCCC=CCCCC(C)(C(=O)N[C@@H](CO)C(=O)O)NC1=O (some centres unmarked) [IDP-S18, APKVVILXKATAYIXS] (H-APKVVIL[X1]KATAYI[ξαMeNle(6-ylidene)]S-OH; staple 8-15; N-terminus and C-terminus assumed) | 
 |  |  | CC[C@H](C)[C@H](NC(=O)[C@H](Cc1ccc(O)cc1)NC(=O)[C@H](C)NC(=O)[C@@H](NC(=O)[C@H](C)NC(=O)C1(C)CCCC=CCCCCCCC(C)(NC(=O)[C@H](C)N)C(=O)N[C@@H](CCCCN)C(=O)N[C@@H](C(C)C)C(=O)N[C@@H](C(C)C)C(=O)N[C@@H]([C@@H](C)CC)C(=O)N[C@@H](CC(C)C)C(=O)N[C@@H](CCCCN)C(=O)N1)[C@@H](C)O)C(=O)N[C@@H](CC(C)C)C(=O)N[C@@H](CO)C(=O)O (some centres unmarked) [IDP-S19, AXKVVILKXATAYILS] (H-A[X1]KVVILK[ξαMeNle(6-ylidene)]ATAYILS-OH; staple 2-9) | IC50 [1, 4]: > 100 µM; IC50 [2, 5]: > 100 µM; IC50 [3, 6]: > 100 µM
 |  |  | CC[C@H](C)[C@H](NC(=O)[C@H](Cc1ccc(O)cc1)NC(=O)C1(C)CCCC=CCCCCCCC(C)(NC(=O)[C@@H](NC(=O)[C@H](CCCCN)NC(=O)[C@@H]2CCCN2C(=O)[C@H](C)N)C(C)C)C(=O)N[C@@H]([C@@H](C)CC)C(=O)N[C@@H](CC(C)C)C(=O)N[C@@H](CCCCN)C(=O)N[C@@H](CCCCN)C(=O)N[C@@H](C)C(=O)N[C@@H]([C@@H](C)O)C(=O)N1)C(=O)N[C@@H](CC(C)C)C(=O)N[C@@H](CO)C(=O)O (some centres unmarked) [IDP-S21, APKVXILKKATXYILS] (H-APKV[X1]ILKKAT[ξαMeNle(6-ylidene)]YILS-OH; staple 5-12) | IC50 [1, 4]: > 100 µM; IC50 [2, 5]: > 100 µM; IC50 [3, 6]: > 100 µM
> 100 µM | > 100 µM | > 100 µM | CC[C@H](C)[C@H](NC(=O)C1(C)CCCC=CCCCCCCC(C)(NC(=O)[C@@H](NC(=O)[C@@H](NC(=O)[C@H](CCCCN)NC(=O)[C@@H]2CCCN2C(=O)[C@H](C)N)C(C)C)C(C)C)C(=O)N[C@@H](CC(C)C)C(=O)N[C@@H](CCCCN)C(=O)N[C@@H](CCCCN)C(=O)N[C@@H](C)C(=O)N[C@@H]([C@@H](C)O)C(=O)N[C@@H](C)C(=O)N1)C(=O)N[C@@H](CC(C)C)C(=O)N[C@@H](CO)C(=O)O (some centres unmarked) [IDP-S22, APKVVXLKKATAXILS] (H-APKVV[X1]LKKATA[ξαMeNle(6-ylidene)]ILS-OH; staple 6-13; N-terminus and C-terminus assumed) | 

SMILES | IC50 [1] | IC50 [2] | IC50 [3] | other results
CC[C@H](C)[C@H](NC(=O)[C@H](Cc1ccc(O)cc1)NC(=O)[C@H](C)NC(=O)C1CSCCCCCCCCSCC(NC(=O)[C@H](CCCCN)NC(=O)[C@@H]2CCCN2C(=O)[C@H](C)N)C(=O)N[C@@H](C(C)C)C(=O)N[C@@H]([C@@H](C)CC)C(=O)N[C@@H](CC(C)C)C(=O)N[C@@H](CCCCN)C(=O)N[C@@H](CCCCN)C(=O)N[C@@H](C)C(=O)N1)C(=O)N[C@@H](CC(C)C)C(=O)N[C@@H](CO)C(=O)O (some centres unmarked) [IDP-P1708160] (H-APK[ξC]VILKKA[ξC]AYILS-OH; linker 4-11 via Octanediyl(1,8); N-terminus and C-terminus assumed) | 65 ± 17 µM | 48 µM |  | IC50 ([2]; 24 h): 35 µM; IC50 ([2]; 72 h): 5 µM
CC[C@H](C)[C@H](NC(=O)[C@H](Cc1ccc(O)cc1)NC(=O)[C@H](C)NC(=O)[C@@H]1CSCc2ccc(cc2)-c2ccc(cc2)CSC[C@H](NC(=O)[C@H](CCCCN)NC(=O)[C@@H]2CCCN2C(=O)[C@H](C)N)C(=O)N[C@@H](C(C)C)C(=O)N[C@@H]([C@@H](C)CC)C(=O)N[C@@H](CC(C)C)C(=O)N[C@@H](CCCCN)C(=O)N[C@@H](CCCCN)C(=O)N[C@@H](C)C(=O)N1)C(=O)N[C@@H](CC(C)C)C(=O)N[C@@H](CO)C(=O)O [IDP-P1708161] (H-APKCVILKKACAYILS-OH; linker 4-11 via Biphenyl(4,4'-CH2)2; N-terminus and C-terminus assumed) | 42 ± 6 µM | 33 ± 15 µM |  | IC50 ([2]; 24 h): 10 µM; IC50 ([2]; 72 h): 15 µM
